Results on 24 compounds are retold here after patent US20050004167A1, “Branched chain amino acid-dependent aminotransferase inhibitors and their use in the treatment of neurodegenerative diseases” (WARNER-LAMBERT COMPANY LLC, priority 2001, published 2005).

One data set addresses T1, rat BCAT cytosolic form (Rattus norvegicus, UniProt P54690).
T1 construct: made in house; host or cells: E. coli BL21(DE3)
T1 sequence (P54690 1-411): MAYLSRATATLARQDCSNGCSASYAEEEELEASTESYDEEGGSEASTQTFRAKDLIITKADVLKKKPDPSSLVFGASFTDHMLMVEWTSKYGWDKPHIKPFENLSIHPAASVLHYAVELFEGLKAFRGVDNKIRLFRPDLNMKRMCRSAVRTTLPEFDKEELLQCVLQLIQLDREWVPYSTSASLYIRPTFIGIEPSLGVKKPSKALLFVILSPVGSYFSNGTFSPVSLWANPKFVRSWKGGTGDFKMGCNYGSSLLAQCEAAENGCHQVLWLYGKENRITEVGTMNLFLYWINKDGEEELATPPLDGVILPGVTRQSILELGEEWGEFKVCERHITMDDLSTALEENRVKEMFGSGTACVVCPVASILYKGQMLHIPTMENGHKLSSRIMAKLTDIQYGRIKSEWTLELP
Kind of data set: In vitro coupled enzyme assay (glutamate dehydrogenase, NADH formation), rat BCATc. The format is biochemical. The settings on record: recombinant rat BCATc, 37° C., 25 mM phosphate buffer pH 7.8; several values in a cell = repeat determinations; read-out: RrBCATc. The essentials: (§1)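 At 37 °C in 25 mM phosphate pH 7.8 with 2 mM DTT, 1.25 μg His-tag-purified E. coli-expressed BCAT transaminated 750 μM L-leucine with 500 μM α-ketoglutarate and 10 μM PLP. Glutamate was coupled via glutamate dehydrogenase (1 mM NAD+, 4 mM ADP) to NADH formation at 340 nm. Compounds were added in DMSO up to 5% v/v.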

Data set [1] concerns the target T2, human Branched Chain Amino Acid Aminotransferase cytosolic form (hBCATc) (Homo sapiens, UniProt P54687).
T2 construct: made in house; host or cells: E. coli BL21(DE3)
T2 sequence (P54687 1-386): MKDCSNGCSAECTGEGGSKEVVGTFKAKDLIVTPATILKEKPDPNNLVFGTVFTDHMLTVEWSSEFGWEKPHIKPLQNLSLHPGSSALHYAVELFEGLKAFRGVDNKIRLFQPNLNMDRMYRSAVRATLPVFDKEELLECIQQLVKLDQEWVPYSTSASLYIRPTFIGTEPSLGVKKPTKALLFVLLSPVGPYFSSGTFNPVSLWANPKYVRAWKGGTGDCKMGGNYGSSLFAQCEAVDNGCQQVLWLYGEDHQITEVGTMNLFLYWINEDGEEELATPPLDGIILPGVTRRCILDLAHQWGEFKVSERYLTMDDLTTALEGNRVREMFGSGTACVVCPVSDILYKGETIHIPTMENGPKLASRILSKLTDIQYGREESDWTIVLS
The data set can be described thus: In vitro coupled enzyme assay (glutamate dehydrogenase, NADH formation), human BCATc. Format: biochemical. The following applies: recombinant human BCATc, 37° C., 25 mM phosphate buffer pH 7.8; several values in a cell = repeat determinations; read-out: RhBCATc. The gist of the method: as §1

pIC50: −log10 of the molar value. Values joined by “and” are separate entries in the source; they are usually repeats but may differ in a detail not shown here. Equal entries are not always repeated.

The melting point is the temperature, or range, at which the solid turns liquid. For `O=C(NNS(=O)(=O)c1ccc(F)cc1Cl)c1cc2cc(Cl)ccc2o1` [Example 30, 2-Benzofurancarboxylic acid, 5-chloro-, 2-[(2-chloro-4-fluorophenyl)sulfonyl]-hydrazide], the melting point is 204.6 to 206.2 °C. Besides, the pIC50 at rat BCAT cytosolic form was 5.24. Besides, the pIC50 in data set [1] is 4.60.

For the compound `O=C(NNS(=O)(=O)c1cc(Cl)cc(Cl)c1)c1cc2cc(Cl)ccc2o1` [Example 31, 2-Benzofurancarboxylic acid, 5-chloro-, 2-[(3,5-dichlorophenyl)sulfonyl]-hydrazide], the melting point lay within 242.5 to 243.3 °C. Besides, the pIC50 on rat BCAT cytosolic form was 6.09. Further, the pIC50 in data set [1] was 5.59 and 5.37.

In turn, `O=C(NNS(=O)(=O)c1cc(C(F)(F)F)cc(C(F)(F)F)c1)c1ccc2oc3ccccc3c2c1` [Example 32, 2-Dibenzofurancarboxylic acid, 2-[[3,5-bis(trifluoromethyl)phenyl]sulfonyl]-hydrazide] came in with a melting point of 244.7 to 245.5 °C. Further, the pIC50 at rat BCAT cytosolic form was less than 4.00. Moreover, the pIC50 in data set [1] was less than 4.00.

`O=C(NNS(=O)(=O)c1cccc(F)c1)c1ccc2oc3ccccc3c2c1` [Example 35, 2-Dibenzofurancarboxylic acid 2-[(3-fluorophenyl)sulfonyl]hydrazide] had a melting point of 222.6 to 223.3 °C. Besides, at rat BCAT cytosolic form, the pIC50 was 6.51. Further, the pIC50 in data set [1] is 5.45.

Turning to `Cc1ccc(F)cc1S(=O)(=O)NNC(=O)c1ccc2oc3ccccc3c2c1` [Example 36, 2-Dibenzofurancarboxylic acid 2-[(5-fluoro-2-methylphenyl)sulfonyl]hydrazide], the melting point fell in the range of 210.1 to 210.5 °C. In addition, the pIC50 on rat BCAT cytosolic form was 5.96. In addition, the pIC50 in data set [1] was 4.76 and 4.74.

`O=C(NNS(=O)(=O)c1ccc(F)c(F)c1)c1ccc2oc3ccccc3c2c1` [Example 37, 2-Dibenzofurancarboxylic acid 2-[(3,4-difluorophenyl)sulfonyl]hydrazide] returned a melting point of 210.1 to 210.5 °C. Also, the pIC50 at rat BCAT cytosolic form is 5.46. The pIC50 in data set [1] was 4.38.

On to `O=C(NNS(=O)(=O)c1ccc(F)c(Cl)c1)c1ccc2oc3ccccc3c2c1` [Example 38, 2-Dibenzofurancarboxylic acid 2-[(3-chloro-4-fluorophenyl)sulfonyl]hydrazide], for which the melting point is 210.8 to 211.6 °C. In addition, at rat BCAT cytosolic form, the pIC50 was 6.11 and 6.21. For the same compound, the pIC50 in data set [1] is 4.52.

Turning to `COc1cccc(S(=O)(=O)NNC(=O)c2ccc3oc4ccccc4c3c2)c1` [Example 39, 2-Dibenzofurancarboxylic acid 2-[(3-methoxyphenyl)sulfonyl]hydrazide], the melting point was in the range of 199.5 to 200.5 °C. Besides, on rat BCAT cytosolic form, the pIC50 is 6.68. Further, the pIC50 in data set [1] was 5.64.

With `O=C(NNS(=O)(=O)c1cccc(F)c1)c1cc2cc(Cl)ccc2o1` [Example 40, 2-Benzofurancarboxylic acid, 5-chloro-2-[(3-fluorophenyl)sulfonyl]hydrazide], the melting point lay in the range of 174.4 to 174.7 °C. For the same compound, the pIC50 on rat BCAT cytosolic form was 6.00. Besides, in data set [1], the pIC50 was 5.31 and 5.06.

`O=C(NNS(=O)(=O)c1ccc(F)c(F)c1)c1cc2cc(Cl)ccc2o1` [Example 41, 2-Benzofurancarboxylic acid, 5-chloro-2-[(3,4-difluorophenyl)sulfonyl]hydrazide] yielded a melting point of 193.8 to 195 °C. Moreover, the pIC50 at rat BCAT cytosolic form was 4.84. The pIC50 in data set [1] is 4.54.

`O=C(NNS(=O)(=O)c1ccccc1Cl)c1cc2cc(Cl)ccc2o1` [Example 42, 2-Benzofurancarboxylic acid, 5-chloro-2-[(2-chlorophenyl)sulfonyl]hydrazide] displayed a melting point of 200.3 to 200.5 °C. For the same compound, at rat BCAT cytosolic form, the pIC50 was 5.89. In data set [1], the pIC50 was 5.28 and 4.98.

In the case of `O=C(NNS(=O)(=O)c1cccc(Cl)c1)c1cc2cc(Cl)ccc2o1` [Example 43, 2-Benzofurancarboxylic acid, 5-chloro-2-[(3-chlorophenyl)sulfonyl]hydrazide], the melting point was in the range of 202.9 to 205.2 °C. Besides, the pIC50 at rat BCAT cytosolic form was 6.33. Besides, the pIC50 in data set [1] is 5.74.

On to `O=C(NNS(=O)(=O)c1cccc(Br)c1)c1cc2cc(Cl)ccc2o1` [Example 45, 2-Benzofurancarboxylic acid, 5-chloro-2-[(3-bromophenyl)sulfonyl]hydrazide], for which the melting point fell in the range of 218.1 to 220 °C. Besides, on rat BCAT cytosolic form, the pIC50 was 6.68. Besides, the pIC50 in data set [1] is 5.64.

For `Cc1cccc(S(=O)(=O)NNC(=O)c2cc3cc(Cl)ccc3o2)c1` [Example 47, 2-Benzofurancarboxylic acid, 5-chloro-2-[(3-methylphenyl)sulfonyl]hydrazide], the melting point lay in the range of 201.2 to 201.6 °C. Moreover, the pIC50 on rat BCAT cytosolic form was 6.82 and 6.70. The pIC50 in data set [1] was 6.08 and 5.83.

Turning to `COc1cccc(S(=O)(=O)NNC(=O)c2cc3cc(Cl)ccc3o2)c1` [Example 48, 2-Benzofurancarboxylic acid, 5-chloro-2-[(3-methoxyphenyl)sulfonyl]hydrazide], the melting point lay in the range of 204.3 to 204.6 °C. The pIC50 at rat BCAT cytosolic form was 6.04. Further, in data set [1], the pIC50 is 5.38 and 5.12.

`Cc1c(Cl)cccc1S(=O)(=O)NNC(=O)c1cc2cc(Cl)ccc2o1` [Example 49, 2-Benzofurancarboxylic acid, 5-chloro-2-[(3-chloro-2-methylphenyl)sulfonyl]-hydrazide] showed a melting point of 198.2 to 198.5 °C. On rat BCAT cytosolic form, the pIC50 is 5.51 and 5.40. The pIC50 in data set [1] is 5.76 and 5.44.

As to `Cc1ccc(F)cc1S(=O)(=O)NNC(=O)c1cc2cc(Cl)ccc2o1` [Example 50, 2-Benzofurancarboxylic acid, 5-chloro-2-[(5-fluoro-2-methylphenyl)sulfonyl]-hydrazide], the melting point lay in the range of 209.6 to 211.2 °C. The pIC50 at rat BCAT cytosolic form is 5.89. Besides, the pIC50 in data set [1] is 5.29 and 5.04.

Take `O=C(NNS(=O)(=O)c1ccccc1OC(F)(F)F)c1cc2cc(Cl)ccc2o1` [Example 52, 2-Benzofurancarboxylic acid, 5-chloro-2-[[2-(trifluoromethoxy)phenyl]sulfonyl]-hydrazide]: the melting point lay within 218.2 to 219.8 °C. For the same compound, at rat BCAT cytosolic form, the pIC50 was 6.52. Further, the pIC50 in data set [1] was 5.66.

Regarding `COc1ccc2oc(C(=O)NNS(=O)(=O)c3ccccc3)c(OC)c2c1` [Example 58, 2-Benzofurancarboxylic acid, 3,5-dimethoxy-, 2-(phenylsulfonyl)hydrazide], the melting point fell in the range of 172.2 to 173.8 °C. For the same compound, the pIC50 at rat BCAT cytosolic form was 6.66. For the same compound, the pIC50 in data set [1] is 5.45.

Turning to `COc1ccc2c(OC)c(C(=O)NNS(=O)(=O)c3ccccc3)oc2c1` [Example 59, 2-Benzofurancarboxylic acid, 3,6-dimethoxy-, 2-(phenylsulfonyl)hydrazide], the melting point was 174.8 to 175.2 °C. In addition, the pIC50 on rat BCAT cytosolic form was 6.92. Moreover, the pIC50 in data set [1] is 5.47.

`CCOc1c(C(=O)NNS(=O)(=O)c2ccccc2)oc2ccc(-c3ccccc3)cc12` [Example 66, 2-Benzofurancarboxylic acid, 3-ethoxy-5-phenyl-, 2-(phenylsulfonyl)hydrazide] registered a melting point of 184.3 to 184.6 °C. Also, at rat BCAT cytosolic form, the pIC50 was 6.82. Further, in data set [1], the pIC50 was 5.86.

In turn, `O=C(NNS(=O)(=O)c1ccccc1)c1cc2cc(Cl)cc(Cl)c2o1` [Example 69, 2-Benzofurancarboxylic acid, 5,7-dichloro 2-(phenylsulfonyl)sulfonyl hydrazide] gave a melting point of 216.4 to 218.1 °C. For the same compound, at rat BCAT cytosolic form, the pIC50 is 7.30. In data set [1], the pIC50 was 5.41.

Turning to `O=C(NNS(=O)(=O)c1ccccc1C(F)(F)F)c1cc2cc(Cl)cc(Cl)c2o1` [Example 70], the melting point fell in the range of 245.6 to 247.6 °C. On rat BCAT cytosolic form, the pIC50 is 6.37. The pIC50 in data set [1] is 4.93.

Regarding `Cc1ccccc1S(=O)(=O)NNC(=O)c1cc2cc(Cl)cc(Cl)c2o1` [Example 71, 2-Benzofurancarboxylic acid, 5,7-dichloro 2-[(2-methylphenyl)sulfonyl]hydrazide], the melting point lay in the range of 212 to 214 °C. In addition, the pIC50 on rat BCAT cytosolic form is 6.06. For the same compound, the pIC50 in data set [1] was 5.18.
